Assay results as given in US9376436B2, “2-(pyridin-2yl)-1, 7-diaza-spiro [4.4] nonane-6-one compound as voltage-gated sodium channels modulators” (CONVERGENCE PHARMACEUTICALS LIMITED, priority 2011, dated 2016).
Counter-ions that a name gives are not always drawn. Like-named read-outs stand apart in the source and are kept apart here.

Target: T1, hNaV1.7 (Homo sapiens, UniProt Q15858)
T1 construct: expressed in transfected cells; host or cells: HEK293
Assay: QPatch NaV1.7 assay (whole-cell patch clamp, QPatch16x)
Format: cell-based
Conditions: HEK293-hNaV1.7 cells
How it was run: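 Automated whole-cell recordings in hNaV1.7-expressing HEK293 cells, holding at either −90 mV (mostly closed channels) or the half-inactivation voltage. Compounds applied cumulatively at four concentrations for 120 s each; peak current on 20 ms depolarisation to 0 mV fitted by Hill equation to yield pIC50.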

[1] = holding voltage V1/2 SSI (half of channels inactivated), read-out: QP Nav1.7 SSI vhalf pIC50 (converted)
[2] = holding voltage −90 mV (most channels closed), read-out: QP Nav1.7 −90 mV pIC50 (converted)

T1 sequence (Q15858 whole entry): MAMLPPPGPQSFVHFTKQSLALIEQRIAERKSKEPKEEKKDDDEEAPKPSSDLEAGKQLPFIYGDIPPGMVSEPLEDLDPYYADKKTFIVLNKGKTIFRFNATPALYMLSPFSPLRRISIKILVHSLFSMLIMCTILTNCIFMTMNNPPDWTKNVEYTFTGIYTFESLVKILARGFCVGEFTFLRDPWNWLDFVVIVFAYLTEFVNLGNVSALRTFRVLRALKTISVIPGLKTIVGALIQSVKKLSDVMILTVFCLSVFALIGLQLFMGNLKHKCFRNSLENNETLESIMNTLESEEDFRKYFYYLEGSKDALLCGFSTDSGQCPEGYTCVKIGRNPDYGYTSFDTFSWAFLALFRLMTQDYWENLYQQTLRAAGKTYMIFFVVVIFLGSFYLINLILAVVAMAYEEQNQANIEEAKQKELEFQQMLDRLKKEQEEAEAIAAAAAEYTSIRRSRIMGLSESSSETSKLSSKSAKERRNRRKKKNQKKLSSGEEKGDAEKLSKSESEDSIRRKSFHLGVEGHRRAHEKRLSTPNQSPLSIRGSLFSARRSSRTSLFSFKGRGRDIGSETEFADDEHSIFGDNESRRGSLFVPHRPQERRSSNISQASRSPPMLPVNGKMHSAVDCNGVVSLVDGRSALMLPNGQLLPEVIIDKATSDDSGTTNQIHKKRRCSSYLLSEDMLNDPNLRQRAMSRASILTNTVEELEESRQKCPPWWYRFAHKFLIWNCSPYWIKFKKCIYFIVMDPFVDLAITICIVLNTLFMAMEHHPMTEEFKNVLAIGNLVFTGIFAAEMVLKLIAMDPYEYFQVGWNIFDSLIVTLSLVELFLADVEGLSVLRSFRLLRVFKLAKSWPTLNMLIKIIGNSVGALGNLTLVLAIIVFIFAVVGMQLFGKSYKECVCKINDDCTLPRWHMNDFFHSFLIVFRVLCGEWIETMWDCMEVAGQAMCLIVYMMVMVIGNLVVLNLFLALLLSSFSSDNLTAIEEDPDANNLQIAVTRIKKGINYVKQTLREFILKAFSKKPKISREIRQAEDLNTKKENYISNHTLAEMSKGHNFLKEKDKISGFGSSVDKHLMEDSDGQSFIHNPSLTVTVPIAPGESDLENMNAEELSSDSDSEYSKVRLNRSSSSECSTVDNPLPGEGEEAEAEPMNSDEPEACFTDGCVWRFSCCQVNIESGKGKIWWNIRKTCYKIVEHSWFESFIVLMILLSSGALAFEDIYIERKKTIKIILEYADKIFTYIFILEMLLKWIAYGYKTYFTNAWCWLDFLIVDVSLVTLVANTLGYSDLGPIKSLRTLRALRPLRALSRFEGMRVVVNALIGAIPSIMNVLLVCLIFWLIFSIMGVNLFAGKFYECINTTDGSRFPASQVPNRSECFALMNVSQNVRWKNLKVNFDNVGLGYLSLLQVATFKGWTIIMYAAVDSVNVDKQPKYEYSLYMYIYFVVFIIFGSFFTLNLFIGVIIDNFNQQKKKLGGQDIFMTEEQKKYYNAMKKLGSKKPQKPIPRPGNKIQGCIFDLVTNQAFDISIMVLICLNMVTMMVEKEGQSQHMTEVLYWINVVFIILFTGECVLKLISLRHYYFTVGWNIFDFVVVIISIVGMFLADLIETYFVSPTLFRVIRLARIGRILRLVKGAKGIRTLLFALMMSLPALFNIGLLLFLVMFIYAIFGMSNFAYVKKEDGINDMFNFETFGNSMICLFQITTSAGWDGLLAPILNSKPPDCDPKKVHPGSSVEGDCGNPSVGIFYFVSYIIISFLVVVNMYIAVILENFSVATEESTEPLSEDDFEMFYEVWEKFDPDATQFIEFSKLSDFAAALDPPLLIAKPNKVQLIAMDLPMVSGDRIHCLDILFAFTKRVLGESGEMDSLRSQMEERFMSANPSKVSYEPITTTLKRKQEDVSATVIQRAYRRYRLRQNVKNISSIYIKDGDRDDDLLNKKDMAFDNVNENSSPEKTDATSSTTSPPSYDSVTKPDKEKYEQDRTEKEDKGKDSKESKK

| Compound | IC50 [1] | IC50 [2] |
| --- | --- | --- |
| CCOc1ccc(-c2ccnc([C@H]3CC[C@@]4(CCN(C)C4=O)N3)c2)cc1C [Example 167, (2R,5S)-2-[4-(4-Ethoxy-3-methyl-phenyl)-2-pyridyl]-7-methyl-1,7-diazaspiro[4.4]nonan-6-one hydrochloride] | 39.8 µM | 39.8 µM |
| COCc1cccc(-c2ccnc([C@H]3CC[C@@]4(CCN(C)C4=O)N3)c2)c1 [Example 168, (2R,5S)-2-[4-[3-(methoxymethyl)phenyl]-2-pyridyl]-7-methyl-1,7-diazaspiro[4.4]nonan-6-one hydrochloride] | 158 µM | 316 µM |
| CC(C)CCn1cc(-c2ccnc([C@H]3CC[C@@]4(CCN(C)C4=O)N3)c2)cn1 [Example 170, (2R,5S)-2-[4-(1-Isopentylpyrazol-4-yl)-2-pyridyl]-7-methyl-1,7-diazaspiro[4.4]nonan-6-one hydrochloride] | 25.1 µM | 398 µM |
| CN1CC[C@@]2(CC[C@H](c3cc(-c4ccc(C5(C#N)CC5)cc4)ccn3)N2)C1=O [Example 171, 1-[4-[2-[(2R,5S)-7-Methyl-6-oxo-1,7-diazaspiro[4.4]nonan-2-yl]-4-pyridyl]phenyl]cyclopropanecarbonitrile hydrochloride] | 50.1 µM | 158 µM |
| CN1CC[C@@]2(CC[C@H](c3cc(-c4ccc5c(c4)OC(F)(F)O5)ccn3)N2)C1=O [Example 172, (2R,5S)-2-[4-(2,2-Difluoro-1,3-benzodioxol-5-yl)-2-pyridyl]-7-methyl-1,7-diazaspiro[4.4]nonan-6-one hydrochloride] | 31.6 µM | 316 µM |
| CN1CC[C@@]2(CC[C@H](c3cc(-c4cccc(-n5cccn5)c4)ccn3)N2)C1=O [Example 173, (2R,5S)-7-Methyl-2-[4-(3-pyrazol-1-ylphenyl)-2-pyridyl]-1,7-diazaspiro[4.4]nonan-6-one hydrochloride] | 12.6 µM | 200 µM |
| Cc1cc(C)cc(-c2ccnc([C@H]3CC[C@@]4(CCN(C)C4=O)N3)c2)c1 [Example 174, (2R,5S)-2-[4-(3,5-Dimethylphenyl)-2-pyridyl]-7-methyl-1,7-diazaspiro[4.4]nonan-6-one hydrochloride] | 25.1 µM | 126 µM |
| CCCOc1cccc(-c2ccnc([C@H]3CC[C@@]4(CCN(C)C4=O)N3)c2)c1 [Example 179, (2R,5S)-7-Methyl-2-[4-(3-propoxyphenyl)-2-pyridyl]-1,7-diazaspiro[4.4]nonan-6-one hydrochloride] | 0.794 µM | 31.6 µM |
| CC(C)Oc1ccc(-c2ccnc([C@H]3CC[C@@]4(CCN(C)C4=O)N3)c2)cc1C#N [Example 180, 2-Isopropoxy-5-[2-[(2R,5S)-7-methyl-6-oxo-1,7-diazaspiro[4.4]nonan-2-yl]-4-pyridyl]benzonitrile hydrochloride] | 20 µM | 1000 µM |
| Cc1ccn(-c2ccc(F)c(-c3ccnc([C@H]4CC[C@@]5(CCN(C)C5=O)N4)c3)c2)n1 [Example 182, (2R,5S)-2-[4-[2-Fluoro-5-(3-methylpyrazol-1-yl)phenyl]-2-pyridyl]-7-methyl-1,7-diazaspiro[4.4]nonan-6-one hydrochloride] | 15.8 µM | 100 µM |
| Cc1cnn(-c2ccc(F)c(-c3ccnc([C@H]4CC[C@@]5(CCN(C)C5=O)N4)c3)c2)c1 [Example 183, (2R,5S)-2-[4-[2-Fluoro-5-(4-methylpyrazol-1-yl)phenyl]-2-pyridyl]-7-methyl-1,7-diazaspiro[4.4]nonan-6-one hydrochloride] | 3.16 µM | 63.1 µM |
| CN1CC[C@@]2(CC[C@H](c3cc(-c4cc(-n5cccn5)ccc4F)ccn3)N2)C1=O [Example 184, (2R,5S)-2-[4-(2-Fluoro-5-pyrazol-1-yl-phenyl)-2-pyridyl]-7-methyl-1,7-diazaspiro[4.4]nonan-6-one hydrochloride] | 10 µM | 126 µM |
| CN1CC[C@@]2(CC[C@H](c3cc(-c4cc5[nH]ncc5cc4F)ccn3)N2)C1=O [Example 186, (2R,5S)-2-[4-(5-Fluoro-1H-indazol-6-yl)-2-pyridyl]-7-methyl-1,7-diazaspiro[4.4]nonan-6-one hydrochloride] | 158 µM | 6310 µM |
| CN1CC[C@@]2(CC[C@H](c3cc(-c4cccc5[nH]ncc45)ccn3)N2)C1=O [Example 187, (2R,5S)-2-[4-(1H-Indazol-4-yl)-2-pyridyl]-7-methyl-1,7-diazaspiro[4.4]nonan-6-one hydrochloride] | 200 µM | 1000 µM |

Continued, values first:

| IC50 [1] | IC50 [2] | Compound |
| --- | --- | --- |
| 6.31 µM | 126 µM | CCOc1cc(F)ccc1-c1ccnc([C@H]2CC[C@@]3(CCN(C)C3=O)N2)c1 [Example 169, (2R,5S)-2-[4-(2-Ethoxy-4-fluoro-phenyl)-2-pyridyl]-7-methyl-1,7-diazaspiro[4.4]nonan-6-one hydrochloride] |
| 15.8 µM | 200 µM | CCOc1cc(F)c(F)c(-c2ccnc([C@H]3CC[C@@]4(CCN(C)C4=O)N3)c2)c1 [Example 175, (2R,5S)-2-[4-(5-Ethoxy-2,3-difluoro-phenyl)-2-pyridyl]-7-methyl-1,7-diazaspiro[4.4]nonan-6-one hydrochloride] |
| 20 µM | 200 µM | CN1CC[C@@]2(CC[C@H](c3cc(-c4cc(OC(F)(F)F)ccc4F)ccn3)N2)C1=O [Example 176, (2R,5S)-2-[4-[2-Fluoro-5-(trifluoromethoxy)phenyl]-2-pyridyl]-7-methyl-1,7-diazaspiro[4.4]nonan-6-one hydrochloride] |
| 0.398 µM | 12.6 µM | CCCOc1ccc(F)c(-c2ccnc([C@H]3CC[C@@]4(CCN(C)C4=O)N3)c2)c1 [Example 177, (2R,5S)-2-[4-(2-Fluoro-5-propoxy-phenyl)-2-pyridyl]-7-methyl-1,7-diazaspiro[4.4]nonan-6-one hydrochloride] |
| 25.1 µM | 631 µM | CCOc1ccc(C)c(-c2ccnc([C@H]3CC[C@@]4(CCN(C)C4=O)N3)c2)c1 [Example 178, (2R,5S)-2-[4-(5-Ethoxy-2-methyl-phenyl)-2-pyridyl]-7-methyl-1,7-diazaspiro[4.4]nonan-6-one hydrochloride] |
| 5.01 µM | 100 µM | CCOc1ccc(Cl)c(-c2ccnc([C@H]3CC[C@@]4(CCN(C)C4=O)N3)c2)c1 [Example 181, (2R,5S)-2-[4-(2-Chloro-5-ethoxy-phenyl)-2-pyridyl]-7-methyl-1,7-diazaspiro[4.4]nonan-6-one hydrochloride] |
| 7.94 µM | 63.1 µM | CN1CC[C@@]2(CC[C@H](c3cc(-c4cc(OC5CC5)ccc4F)ccn3)N2)C1=O [Example 185, (2R,5S)-2-[4-[5-(Cyclopropoxy)-2-fluoro-phenyl]-2-pyridyl]-7-methyl-1,7-diazaspiro[4.4]nonan-6-one hydrochloride] |
| 100 µM | 501 µM | COCc1ccc(F)c(-c2ccnc([C@H]3CC[C@@]4(CCN(C)C4=O)N3)c2)c1 [Example 188, (2R,5S)-2-[4-[2-Fluoro-5-(methoxymethyl)phenyl]-2-pyridyl]-7-methyl-1,7-diazaspiro[4.4]nonan-6-one hydrochloride] |
| 25.1 µM | 251 µM | CCOCc1ccc(F)c(-c2ccnc([C@H]3CC[C@@]4(CCN(C)C4=O)N3)c2)c1 [Example 189, (2R,5S)-2-[4-[5-(Ethoxymethyl)-2-fluoro-phenyl]-2-pyridyl]-7-methyl-1,7-diazaspiro[4.4]nonan-6-one hydrochloride] |
